In PubChem BioAssay AID248 (DTP/NCI, 2004):
“And” between values parts separate entries of the source, which are not always exact repeats. Equal values may be shown once. Inconclusive results and toxic doses are left out.

Test system: L1210 leukemia ip in BDF1 mice, survival T/C
Test: NCI In Vivo Anticancer Drug Screen. Data for tumor model L1210 Leukemia (intraperitoneal) in B6D2F1 (BDF1) mice
Conditions: endpoint: mean survival time, higher = longer survival
In short: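 Transplanted-tumor mice were given test agent; controls received vehicle only. Survival readings from the two groups were divided (treated over control).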

[1] = dose: 100.0 mg/kg/injection, schedule: Q01DX001 (ip), vehicle: saline
[2] = dose: 200.0 mg/kg/injection, schedule: Q01DX001 (ip), vehicle: saline
[3] = dose: 200.0 mg/kg/injection, schedule: Q01DX009 (ip), vehicle: saline
[4] = dose: 400.0 mg/kg/injection, schedule: Q01DX001 (ip), vehicle: saline
[5] = dose: 75.0 mg/kg/injection, schedule: Q01DX001 (ip), vehicle: saline
[6] = dose: 150.0 mg/kg/injection, schedule: Q01DX001 (ip), vehicle: saline
[7] = dose: 300.0 mg/kg/injection, schedule: Q01DX001 (ip), vehicle: saline

Clc1cc(N2CC2)nc(N2CC2)n1
T/C (dose: 1.56 mg/kg/injection, schedule: Q01DX001 (ip), vehicle: saline): 92 % of control
T/C (dose: 1.56 mg/kg/injection, schedule: Q04DX003 (ip), vehicle: saline): 110 % of control
T/C (dose: 1.6 mg/kg/injection, schedule: Q01DX009 (ip), vehicle: carboxymethylcellulose (CMC)): 118 % of control
T/C (dose: 2.14 mg/kg/injection, schedule: Q01DX009 (ip), vehicle: saline): 166 % of control and 184 % of control
T/C (dose: 2.5 mg/kg/injection, schedule: Q01DX001 (ip), vehicle: carboxymethylcellulose (CMC)): 111 % of control
T/C (dose: 2.7 mg/kg/injection, schedule: Q01DX009 (ip), vehicle: carboxymethylcellulose (CMC)): 120 % of control
T/C (dose: 3.12 mg/kg/injection, schedule: Q01DX001 (ip), vehicle: saline): 93 % of control
T/C (dose: 3.25 mg/kg/injection, schedule: Q01DX009 (ip), vehicle: saline with Tween-80): 185 % of control
T/C (dose: 3.25 mg/kg/injection, schedule: Q01DX009 (ip), vehicle: saline): 177 % of control and 226 % of control
T/C (dose: 4.12 mg/kg/injection, schedule: Q04DX003 (ip), vehicle: saline): 156 % of control
T/C (dose: 4.44 mg/kg/injection, schedule: Q01DX001 (ip), vehicle: carboxymethylcellulose (CMC)): 115 % of control
T/C (dose: 4.87 mg/kg/injection, schedule: Q01DX009 (ip), vehicle: saline): 103 % of control
T/C (dose: 5.0 mg/kg/injection, schedule: Q01DX001 (ip), vehicle: carboxymethylcellulose (CMC)): 120 % of control
T/C (dose: 5.0 mg/kg/injection, schedule: Q01DX001 (ip), vehicle: saline): 118 % of control
T/C (dose: 6.25 mg/kg/injection, schedule: Q01DX001 (ip), vehicle: saline): 98 % of control
T/C (dose: 6.25 mg/kg/injection, schedule: Q04DX003 (ip), vehicle: saline): 166 % of control and 173 % of control and 202 % of control
T/C (dose: 6.67 mg/kg/injection, schedule: Q01DX001 (ip), vehicle: carboxymethylcellulose (CMC)): 121 % of control
T/C (dose: 7.5 mg/kg/injection, schedule: Q01DX009 (ip), vehicle: carboxymethylcellulose (CMC)): 106 % of control
T/C (dose: 10.0 mg/kg/injection, schedule: Q01DX001 (ip), vehicle: carboxymethylcellulose (CMC)): 154 % of control
T/C (dose: 10.0 mg/kg/injection, schedule: Q01DX001 (ip), vehicle: saline): 156 % of control and 160 % of control
T/C (dose: 15.0 mg/kg/injection, schedule: Q01DX001 (ip), vehicle: saline): 160 % of control
T/C (dose: 20.0 mg/kg/injection, schedule: Q01DX001 (ip), vehicle: carboxymethylcellulose (CMC)): 104 % of control

CC1(C)N=C(N)N=C(N)N1c1cccc(OCCOc2ccc(NC(=O)CBr)cc2)c1
T/C (dose: 50.0 mg/kg/injection, schedule: Q01DX009 (ip), vehicle: saline): 124 % of control
T/C [1]: 94 % of control
T/C (dose: 100.0 mg/kg/injection, schedule: Q01DX009 (ip), vehicle: other): 172 % of control
T/C (dose: 150.0 mg/kg/injection, schedule: Q01DX009 (ip), vehicle: other): 154 % of control
T/C [2]: 109 % of control
T/C (dose: 200.0 mg/kg/injection, schedule: Q01DX009 (ip), vehicle: other): 100 % of control
T/C [3]: 97 % of control
T/C [4]: 112 % of control

ClC(Cl)(Cl)C1OCOC(C(Cl)(Cl)Cl)O1 (configuration not stated)
T/C (dose: 100.0 mg/kg/injection, schedule: Q04DX003 (ip), vehicle: saline with Tween-80): 98 % of control
T/C (dose: 200.0 mg/kg/injection, schedule: Q04DX003 (ip), vehicle: saline with Tween-80): 96 % of control
T/C (dose: 400.0 mg/kg/injection, schedule: Q04DX003 (ip), vehicle: saline with Tween-80): 101 % of control

N#CCC(=O)[O][Sn]([c]1ccccc1)([c]1ccccc1)[c]1ccccc1
T/C (dose: 1.56 mg/kg/injection, schedule: Q01DX009 (ip), vehicle: saline with Tween-80): 99 % of control
T/C (dose: 3.12 mg/kg/injection, schedule: Q01DX009 (ip), vehicle: saline with Tween-80): 92 % of control
T/C (dose: 6.25 mg/kg/injection, schedule: Q01DX009 (ip), vehicle: saline with Tween-80): 89 % of control

O=C(NNc1ccccc1)c1ccc(Cl)cc1
T/C (dose: 100.0 mg/kg/injection, schedule: Q04DX002 (ip), vehicle: gum acacia): 112 % of control
T/C (dose: 200.0 mg/kg/injection, schedule: Q04DX002 (ip), vehicle: gum acacia): 87 % of control
T/C (dose: 400.0 mg/kg/injection, schedule: Q04DX002 (ip), vehicle: gum acacia): 102 % of control

NC(=O)NN=C(CS)CS
T/C (dose: 0.5 mg/kg/injection, schedule: Q01DX015 (ip), vehicle: carboxymethylcellulose (CMC)): 93 % of control
T/C (dose: 1.0 mg/kg/injection, schedule: Q01DX015 (ip), vehicle: carboxymethylcellulose (CMC)): 98 % of control
T/C (dose: 2.0 mg/kg/injection, schedule: Q01DX015 (ip), vehicle: carboxymethylcellulose (CMC)): 96 % of control
T/C (dose: 4.0 mg/kg/injection, schedule: Q01DX015 (ip), vehicle: carboxymethylcellulose (CMC)): 98 % of control and 104 % of control
T/C (dose: 5.0 mg/kg/injection, schedule: Q01DX001 (ip), vehicle: other): 97 % of control
T/C (dose: 8.0 mg/kg/injection, schedule: Q01DX015 (ip), vehicle: carboxymethylcellulose (CMC)): 98 % of control
T/C (dose: 10.0 mg/kg/injection, schedule: Q01DX001 (ip), vehicle: other): 97 % of control
T/C (dose: 16.0 mg/kg/injection, schedule: Q01DX015 (ip), vehicle: carboxymethylcellulose (CMC)): 98 % of control
T/C (dose: 20.0 mg/kg/injection, schedule: Q01DX001 (ip), vehicle: other): 94 % of control
T/C (dose: 25.0 mg/kg/injection, schedule: Q04DX003 (ip), vehicle: Klucel (hydroxypropylcellulose) (HPC)): 104 % of control
T/C (dose: 32.0 mg/kg/injection, schedule: Q01DX015 (ip), vehicle: carboxymethylcellulose (CMC)): 98 % of control
T/C (dose: 40.0 mg/kg/injection, schedule: Q01DX001 (ip), vehicle: other): 97 % of control
T/C (dose: 50.0 mg/kg/injection, schedule: Q04DX003 (ip), vehicle: Klucel (hydroxypropylcellulose) (HPC)): 101 % of control
T/C (dose: 80.0 mg/kg/injection, schedule: Q01DX001 (ip), vehicle: other): 95 % of control
T/C (dose: 100.0 mg/kg/injection, schedule: Q04DX003 (ip), vehicle: Klucel (hydroxypropylcellulose) (HPC)): 101 % of control

Cn1cnc(C(N)=S)c1N
T/C (dose: 100.0 mg/kg/injection, schedule: Q01DX009 (ip), vehicle: saline): 98 % of control
T/C (dose: 100.0 mg/kg/injection, schedule: Q04DX003 (ip), vehicle: saline): 107 % of control
T/C [3]: 105 % of control
T/C (dose: 200.0 mg/kg/injection, schedule: Q04DX003 (ip), vehicle: saline): 102 % of control
T/C (dose: 400.0 mg/kg/injection, schedule: Q01DX009 (ip), vehicle: saline): 96 % of control
T/C (dose: 400.0 mg/kg/injection, schedule: Q04DX003 (ip), vehicle: saline): 105 % of control

CCOC(=O)C1(Cc2ccccc2)CCCC1=O (configuration not stated)
T/C (dose: 100.0 mg/kg/injection, schedule: Q01DX001 (ip), vehicle: carboxymethylcellulose (CMC)): 107 % of control
T/C (dose: 200.0 mg/kg/injection, schedule: Q01DX001 (ip), vehicle: carboxymethylcellulose (CMC)): 96 % of control
T/C (dose: 400.0 mg/kg/injection, schedule: Q01DX001 (ip), vehicle: carboxymethylcellulose (CMC)): 96 % of control

COc1cccc(C2Nc3cc(Cl)ccc3S2)c1O (configuration not stated)
T/C [5]: 105 % of control
T/C [6]: 109 % of control
T/C [7]: 105 % of control

Nc1ccc(O)c2ccccc12
T/C (dose: 6.25 mg/kg/injection, schedule: Q04DX003 (ip), vehicle: other): 97 % of control

CN(C)c1nc(C(=O)O)cc(=O)[nH]1
T/C (dose: 100.0 mg/kg/injection, schedule: Q01DX Z (ip), vehicle: saline): 101 % of control
T/C (dose: 200.0 mg/kg/injection, schedule: Q01DX Z (ip), vehicle: saline): 100 % of control

CC(=O)Nc1ccc(S(=O)(=O)Cl)cc1Cl
T/C [5]: 96 % of control
T/C [6]: 98 % of control
T/C [7]: 99 % of control

O=C(NCCCl)Nc1ccncc1
T/C (dose: 1.25 mg/kg/injection, schedule: Q01DX009 (ip), vehicle: Klucel (hydroxypropylcellulose) (HPC)): 97 % of control
T/C (dose: 2.5 mg/kg/injection, schedule: Q01DX009 (ip), vehicle: Klucel (hydroxypropylcellulose) (HPC)): 88 % of control
T/C (dose: 2.5 mg/kg/injection, schedule: Q04DX003 (ip), vehicle: Klucel (hydroxypropylcellulose) (HPC)): 100 % of control
T/C (dose: 5.0 mg/kg/injection, schedule: Q04DX003 (ip), vehicle: Klucel (hydroxypropylcellulose) (HPC)): 103 % of control

CC(C)(C)NC(=O)Oc1ccc(-c2ccccc2)cc1Cl
T/C (dose: 100.0 mg/kg/injection, schedule: Q01DX009 (ip), vehicle: Klucel (hydroxypropylcellulose) (HPC)): 95 % of control
T/C (dose: 200.0 mg/kg/injection, schedule: Q01DX009 (ip), vehicle: Klucel (hydroxypropylcellulose) (HPC)): 100 % of control
T/C (dose: 400.0 mg/kg/injection, schedule: Q01DX009 (ip), vehicle: Klucel (hydroxypropylcellulose) (HPC)): 100 % of control

C[As+]1(N)c2ccccc2Nc2ccccc21
T/C [1]: 86 % of control
T/C [2]: 93 % of control
T/C [4]: 91 % of control
